# In EP4796540A2, “N-SULFONAMIDE NITROGEN-CONTAINING FUSED HETEROCYCLIC COMPOUND, AND APPLICATION THEREOF” (priority 2023, dated 2025):
# Values joined by “and” are separate entries in the source; they are usually repeats but may differ in a detail not shown here. Identical values can stand only once.
# Key:
# p53 Y220C mutant = experiment: HTRF assay: compounds promoting the binding of p53 Y220C mutant with DNA; type: biochemical; settings: His-tagged p53 Y220C (94-312), biotin-labeled DNA
# Experimental: Homogeneous time-resolved fluorescence (HTRF) assay was used to measure the reactivation effect of compounds on the p53 Y220C mutant. The recombinant His-tagged p53 Y220C (94-312) used for HTRF assays was expressed in E. coli and purified to the purity of 90% through Ni-NTA column. The biotin-labeled DNA used for HTRF assays was synthesized by Pharmaron Inc, with the specific sequence of 5'-[…]-3' .
# The binding of recombinant His-tagged p53 Y220C protein and biotin-labeled DNA was measured using fluorescence resonance energy transfer (FRET). For FRET assays, binding between p53 mutants and DNA sequences was measured by detecting the fluorescence of the interaction between an anti-His antibody (Cisbio, 61HI2KLA) conjugated to Eu and d2-conjugated streptavidin (Cisbio, 610SADLF) bound to a biotin-labeled DNA molecule. Compounds were prepared into 2 mM stock solutions and serially diluted into 10 concentrations at a 1:3 ratio in DMSO. Each 200-fold working concentration compound was sequentially diluted to 4-fold working concentration. 4 µL of compound solution was transferred line by line to a 384-well assay plate using Echo, containing 2 replicates per column. 4 µL of p53 solution was added to the assay plate. 4 µL of biotin DNA solution was added to the assay plate, and then 4 µL of assay solution (His-Eu antibody and streptavidin-d2) was added to each well of the assay plate. The assay plate was incubated overnight and protected from light. Fluorescence was read on BMG (BMG LRBTECH).
# The ratio of each well was calculated (ratio_665 nm/615 nm-ratio_background). The activity % was calculated as follows: C = (Ave_Ac−Ave_Ba)/(Ave_Dc_Ave_Bd) [formula] R data = (A−Ave_Ba−C*D)/(D−Ave_Bd)*(Ave_Dc−Ave_Bd) [formula] Activity % = R data/Ave_VC*100. [formula] • A: fluorescence intensity of the sample at 665 nm; • D: fluorescence intensity of the sample at 615 nm; • Ba: fluorescence intensity of the plate background at 665 nm; • Bd: fluorescence intensity of the plate background at 615 nm; • Dc: fluorescence intensity of HIS-Eu background at 615 nm; • Ac: fluorescence intensity of streptavidin-d2 background at 665 nm; • VC: DMSO treatment group.
# SC150 was calculated using Graphpad 8.0 to fit the logarithm of activity% and compound concentration to a nonlinear regression (dose response-variable slope). Table 1: Activity of compounds promoting the binding of p53 Y220C mutant with DNA
# [1] = tested on: human gastric cancer NUGC-3 xenograft; experiment: In vivo efficacy study in human gastric cancer NUGC-3 xenograft rat model; set-up: species or system B-Rag2/IL2rg KO SD rats; settings: QD × 28 days, p.o., rats
# Experimental: 1. Experimental purpose: To test the in vivo anti-tumor activity of compounds in the subcutaneous human gastric cancer NUGC-3 xenograft model in female B-Rag2/IL2rg KO SD rats. 2. Experimental materials: Animals: 7 to 9 weeks old female B-Rag2/IL2rg KO SD rats; Reagents:
# Vehicle: 5% DMSO/10% Solutol HS 15/85% pH 4.65 ± 0.10 acetate buffer;
# Cell culture: NUGC-3 cells were cultured in RPMI-1640 medium containing 10% FBS.
# Molding and grouping: NUGC-3 cells in the exponential growth phase (1 × 10^7) were harvested, resuspended in 0.2 mL of PBS and Matrigel (1:1), and then inoculated subcutaneously into the right flank of B-Rag2/IL2rg KO SD rats to establish a subcutaneous xenograft model. Rats were observed daily for healthy status and tumor growth after cell inoculation. On the 10th day after inoculation, 24 animals were selected, grouped, and the tumor volume of the animals in the group was approximately 199.0 mm^3. The study was divided into 4 groups, with 6 rats in each group, and the administration was performed on the same day (see Table 12).
# 4. Experimental design: Table 12 is the grouping and administration information for the efficacy study. Rats in the G1 group were orally administered vehicle control (5% DMSO/10% Solutol HS 15/85% pH 4.65 ± 0.10 acetate buffer) once a day for a total of 28 days. Rats in the G2 group were orally administered Cpd-2 once a day at a dose of 6.25 mg/kg for a total of 28 days. Rats in the G3 group were orally administered Cpd-2 once a day at a dose of 12.5 mg/kg for a total of 28 days. Rats in the G4 group were orally administered Cpd-2 once a day at a dose of 25 mg/kg for a total of 28 days. Table 12. In vivo efficacy study design of NUGC-3 xenograft rat model
# Experimental observation: The health status and mortality of the animals were monitored daily. Routine checks included the effect of tumor growth and drug treatment on animals' normal behavior such as mobility, food and water consumption, body weight gain/loss, eye/hair matting and any other abnormal effect. The number of deaths and side effects of the animals in the group were recorded based on the number of the animals in each group. Clinical symptoms observed during the trial were recorded in the raw data. Tumor volume calculation formula: Tumor volume (mm^3) = 0.5 × (tumor long diameter × tumor short diameter^2). During the research process, the entire administration process as well as tumor and body weight measurements were conducted in a Laminar Flow Cabinet.
# Data processing: Percentage of tumor growth inhibition TGITV (%): TGITV % = (1 - ΔT/ΔC) × 100%; Wherein ΔC is the tumor volume Ct - C0 for the control group, C0 is the average tumor volume of the control group at the time of grouping, and Ct is the average tumor volume of the control group after treatment; ΔT is the tumor volume Tt - T0 for the treatment group, T0 is the average tumor volume of the treatment group at the time of grouping, and Tt is the average tumor volume of the treatment group after treatment.
# Statistical analysis: Tumor volume and animal body weight results are expressed in Mean ± SEM. Tumor volumes between different groups were statistically compared and analyzed. All statistical analyses were completed in https://d2k.bio/Efficacy/Invivo. The wilcox.test nominal method was used to compare whether there was a significant difference in tumor volume or tumor weight between groups, where p ≥ 0.05 was considered as having no significant difference, p < 0.05 was considered as having a significant difference, and p < 0.01 was considered as having an extremely significant difference.
smiles,measurement,setting,value
"[2H]C([2H])([2H])Oc1nc(C(=O)NS(C)(=O)=O)ccc1NCC#Cc1cc2c(N[C@@H]3CCN(C)C[C@@H]3F)cccn2c1CC(F)(F)F [Cpd-2, 5-((3-(8-(((3S,4R)-3-Fluoro-1-methylpiperidin-4-yl)amino)-3-(2,2,2-trifluoroethyl)indolizin-2-yl)prop-2-yn-1-yl)amino)-6-(methoxy-d3)-N-(methylsulfonyl)picolinamide]",SC150,p53 Y220C mutant,0.58 nM
same,TGITV (%) (at 28 days),[1]; 6.25 mg/kg,92.9%
same,Tumor volume (mm^3) (Mean ± SEM) (at 28 days),[1]; 6.25 mg/kg,395.0 mm^3 and 395.0 ± 63.1 mm^3
same,TGITV (%) (at 28 days),[1]; 12.5 mg/kg,102.9%
same,Tumor volume (mm^3) (Mean ± SEM) (at 28 days),[1]; 12.5 mg/kg,119.2 mm^3 and 119.2 ± 10.2 mm^3
same,TGITV (%) (at 28 days),[1]; 25 mg/kg,104.7%
same,Tumor volume (mm^3) (Mean ± SEM) (at 28 days),[1]; 25 mg/kg,70.1 mm^3 and 70.1 ± 14.9 mm^3
